In patent publication EP1027361B1, “6,11-BRIDGED ERYTHROMYCIN DERIVATIVES” (Abbott Laboratories, priority 1997, dated 1999):

What was measured:
Assay in all cases: in vitro antibacterial activity, agar dilution MIC
Assay type in all cases: cell-based
[1] = system: Streptococcus Pheumoniae ATCC6303; design: unit not given here; settings: organism code XX, BHI agar, 35-37 °C, 20 to 24 hours
Protocol: (§1) Erythromycin A was used for this purpose.
(§2) After incubation, each plate was visually inspected.

[2] = system: Streptococcus pyogenes EES61; design: unit not given here; settings: organism code LL, BHI agar, 35-37 °C, 20 to 24 hours
Protocol: as §1, §2

[3] = system: Streptococcus agalactiae CMX 508; design: unit not given here; settings: organism code KK, BHI agar, 35-37 °C, 20 to 24 hours
Protocol: as §1, §2

[4] = system: Staphylococcus aureus ATCC 6538P; design: unit not given here; settings: organism code AA, BHI agar, 35-37 °C, 20 to 24 hours
Protocol: as §1, §2

[5] = system: Streptococcus bovis A-5169; design: unit not given here; settings: organism code JJ, BHI agar, 35-37 °C, 20 to 24 hours
Protocol: as §1, §2

[6] = system: Micrococcus luteus ATCC 9341; settings: organism code OO, BHI agar, 35-37 °C, 20 to 24 hours
Protocol: as §1, §2

[7] = system: Staphylococcus aureus CMX 642A; settings: organism code DD, BHI agar, 35-37 °C, 20 to 24 hours
Protocol: as §1, §2

[8] = system: Staphylococcus epidermidis 3519; settings: organism code HH, BHI agar, 35-37 °C, 20 to 24 hours
Protocol: as §1, §2

[9] = system: Staphylococcus aureus CMX 553; settings: organism code FF, BHI agar, 35-37 °C, 20 to 24 hours
Protocol: as §1, §2

[10] = system: Escherichia coli JUHL; settings: organism code QQ, BHI agar, 35-37 °C, 20 to 24 hours
Protocol: as §1, §2

[11] = system: Enterococcus faecium ATCC 8043; settings: organism code II, BHI agar, 35-37 °C, 20 to 24 hours
Protocol: as §1, §2

[12] = system: Escherichia coli SS; settings: organism code RR, BHI agar, 35-37 °C, 20 to 24 hours
Protocol: as §1, §2

[13] = system: Nocardia Asteroides ATCC9970; settings: organism code VV, BHI agar, 35-37 °C, 20 to 24 hours
Protocol: as §1, §2

[14] = system: Micrococcus luteus ATCC 4698; settings: organism code PP, BHI agar, 35-37 °C, 20 to 24 hours
Protocol: as §1, §2

[15] = system: Streptococcus Pheumoniae GYR 1171; settings: organism code YY, BHI agar, 35-37 °C, 20 to 24 hours
Protocol: as §1, §2

[16] = system: Haemophilis Influenzae DILL AMP R; settings: organism code WW, BHI agar, 35-37 °C, 20 to 24 hours
Protocol: as §1, §2

[17] = system: Streptococcus Pheumoniae 5649; settings: organism code ZZA, BHI agar, 35-37 °C, 20 to 24 hours
Protocol: as §1, §2

[18] = system: Streptococcus pyogenes 930; settings: organism code MM, BHI agar, 35-37 °C, 20 to 24 hours
Protocol: (§3) Representative compounds of the present invention were assayed in vitro for antibacterial activity as follows: Twelve petri dishes containing successive aqueous dilutions of the test compound mixed with 10 mL of sterilized Brain Heart Infusion (BHI) agar (Difco 0418-01-5) were prepared. Each plate was inoculated with 1:100 (or 1:10 for slow-growing strains, such as Micrococcus and Streptococcus) dilutions of up to 32 different microorganisms, using a Steers replicator block. […] In addition, a control plate, using BHI agar containing no test compound, was prepared and incubated at the beginning and end of each test
(§4) An additional plate containing a compound having known susceptibility patterns for the organisms being tested and belonging to the same antibiotic class as the test compound was also prepared and incubated as a further control, as well as to provide test-to-test comparability.
(§5) After incubation, each plate was visually inspected. The minimum inhibitory concentration (MIC) was defined as the lowest concentration of drug yielding no growth, a slight haze, or sparsely isolated colonies on the inoculum spot as compared to the growth control.

[19] = system: Streptococcus Pheumoniae 5979; settings: organism code ZZ, BHI agar, 35-37 °C, 20 to 24 hours
Protocol: as §3, §4, §5

[20] = system: Candida albicans CCH 442; settings: organism code TT, BHI agar, 35-37 °C, 20 to 24 hours
Protocol: as §3, §4, §5

[21] = system: Staphylococcus aureus 1775; settings: organism code GG, BHI agar, 35-37 °C, 20 to 24 hours
Protocol: as §3, §4, §5

[22] = system: Streptococcus pyogenes PIU 2548; settings: organism code NN, BHI agar, 35-37 °C, 20 to 24 hours
Protocol: as §3, §4, §5

[23] = system: Escherichia coli DC-2; settings: organism code SS, BHI agar, 35-37 °C, 20 to 24 hours
Protocol: as §3, §4, §5

[24] = system: Staphylococcus aureus A-5278; settings: organism code CC, BHI agar, 35-37 °C, 20 to 24 hours
Protocol: as §3, §4, §5

[25] = system: Mycobacterium smegmatis ATCC 114; design: unit not given here; settings: organism code UU, BHI agar, 35-37 °C, 20 to 24 hours
Protocol: as §3, §4, §5

[26] = system: Staphylococcus aureus A5177; design: unit not given here; settings: organism code BB, BHI agar, 35-37 °C, 20 to 24 hours
Protocol: as §3, §4, §5

[27] = system: Staphylococcus aureus NCTC10649M; settings: organism code EE, BHI agar, 35-37 °C, 20 to 24 hours
Protocol: as §1, §2

| SMILES | minimum inhibitory concentration (MIC) [1] | minimum inhibitory concentration (MIC) [2] | minimum inhibitory concentration (MIC) [3] | minimum inhibitory concentration (MIC) [4] | minimum inhibitory concentration (MIC) [5] | minimum inhibitory concentration (MIC) [6] | minimum inhibitory concentration (MIC) [7] | minimum inhibitory concentration (MIC) [8] | minimum inhibitory concentration (MIC) [9] | minimum inhibitory concentration (MIC) [10] | minimum inhibitory concentration (MIC) [11] | minimum inhibitory concentration (MIC) [12] | minimum inhibitory concentration (MIC) [13] | minimum inhibitory concentration (MIC) [14] | minimum inhibitory concentration (MIC) [15] | minimum inhibitory concentration (MIC) [16] | minimum inhibitory concentration (MIC) [17] | minimum inhibitory concentration (MIC) [18] | minimum inhibitory concentration (MIC) [20] | minimum inhibitory concentration (MIC) [21] | other results |
| --- | --- | --- | --- | --- | --- | --- | --- | --- | --- | --- | --- | --- | --- | --- | --- | --- | --- | --- | --- | --- | --- |
| CC[C@H]1OC(=O)[C@H](C)[C@@H](O[C@H]2C[C@@](C)(OC)[C@@H](O)[C@H](C)O2)[C@H](C)[C@@H](O[C@@H]2O[C@H](C)C[C@H](N(C)C)[C@H]2O)[C@@]2(C)C[C@@H](C)C(=O)[C@H](C)[C@H]3N(CCNCc4cccc(c4)C=CCO2)C(=O)O[C@]13C [Example 11, Compound of Formula (I), 2'-R^p is H, 4"-R^p is H, m is 2, A is NH, B is-(CH2)q-, q is 1, D is 1,3-phenylene, E is-(CH2)r-CH=CH-, r is 0, n is 1] | 0.12 | 0.2 | 0.1 | 3.1 | 0.1 | 0.2 | 3.1 | 3.1 | 3.1 | >100 | 0.2 | 6.2 | 0.2 | 3.1 | 0.25 | 32 | 32 | >100 | >100 | >100 | minimum inhibitory concentration (MIC) [19]: >128; minimum inhibitory concentration (MIC) [22]: 12.5; minimum inhibitory concentration (MIC) [23]: >100; minimum inhibitory concentration (MIC) [24]: >100; minimum inhibitory concentration (MIC) [25]: 0.2; minimum inhibitory concentration (MIC) [26]: 50 |
| CC[C@H]1OC(=O)[C@H](C)[C@@H](O[C@H]2C[C@@](C)(OC)[C@@H](O)[C@H](C)O2)[C@H](C)[C@@H](O[C@@H]2O[C@H](C)C[C@H](N(C)C)[C@H]2O)[C@@]2(C)C[C@@H](C)C(=O)[C@H](C)[C@H]3N(CCNC(=O)c4ccccc4C=CCO2)C(=O)O[C@]13C [Example 4, Compound of Formula (I), 2'-R^p is H, 4"-R^p is H, m is 2, A is NH, B is -C(O)-(CH2)q-, q is 0, D is 1,2-phenylene, E is-(CH2)r-CH=CH-, r is 0, n is 1] | 0.03 | 0.39 | 0.2 | 1.56 | 0.2 | 0.2 | 1.56 | 1.56 | 1.56 | 100 | 0.39 | 6.2 | 0.2 | 1.56 | 0.03 | 16 | 16 | >100 | >100 | >100 | minimum inhibitory concentration (MIC) [19]: >128; minimum inhibitory concentration (MIC) [22]: 12.5; minimum inhibitory concentration (MIC) [23]: >100; minimum inhibitory concentration (MIC) [24]: >100; minimum inhibitory concentration (MIC) [25]: 3.1; minimum inhibitory concentration (MIC) [26]: 25 |
| CC[C@H]1OC(=O)[C@H](C)[C@@H](O[C@H]2C[C@@](C)(OC)[C@@H](O)[C@H](C)O2)[C@H](C)[C@@H](O[C@@H]2O[C@H](C)C[C@H](N(C)C)[C@H]2O)[C@](C)(O)C[C@@H](C)C(=O)[C@H](C)[C@@H](O)[C@]1(C)O [Ery. A, Erythromycin A, reference compound] | 0.06 | 0.05 | 0.05 | 0.2 | 0.02 | 0.05 | 0.39 | 0.39 | 0.39 | >100 | 0.05 | 0.78 | 0.1 | 0.2 | 0.06 | 4 | 16 | >100 | >100 | >100 | minimum inhibitory concentration (MIC) [27]: 0.39; minimum inhibitory concentration (MIC) [22]: 6.2; minimum inhibitory concentration (MIC) [23]: >100; minimum inhibitory concentration (MIC) [24]: >100; minimum inhibitory concentration (MIC) [25]: 3.1; minimum inhibitory concentration (MIC) [26]: 3.1 |
